Results published in US12365696B2, “Small-molecule focal adhesion kinase (FAK) inhibitors” (DANA-FARBER CANCER INSTITUTE, INC., priority 2019, dated 2025).
Where two headings read alike, the source gives them in different places.

What was measured:
Assay in all cases: KINOMEscan
Assay type in all cases: binding
TRKC = TRKC (Homo sapiens (Human), UniProt Q16288); conditions: 10000 nM, read-out: Percent Control
DYRK2 = DYRK2 (Homo sapiens (Human), UniProt Q92630); conditions: DYRK2, 10000 nM; read-out: Percent Control
DYRK2, sequence (Q92630 whole entry): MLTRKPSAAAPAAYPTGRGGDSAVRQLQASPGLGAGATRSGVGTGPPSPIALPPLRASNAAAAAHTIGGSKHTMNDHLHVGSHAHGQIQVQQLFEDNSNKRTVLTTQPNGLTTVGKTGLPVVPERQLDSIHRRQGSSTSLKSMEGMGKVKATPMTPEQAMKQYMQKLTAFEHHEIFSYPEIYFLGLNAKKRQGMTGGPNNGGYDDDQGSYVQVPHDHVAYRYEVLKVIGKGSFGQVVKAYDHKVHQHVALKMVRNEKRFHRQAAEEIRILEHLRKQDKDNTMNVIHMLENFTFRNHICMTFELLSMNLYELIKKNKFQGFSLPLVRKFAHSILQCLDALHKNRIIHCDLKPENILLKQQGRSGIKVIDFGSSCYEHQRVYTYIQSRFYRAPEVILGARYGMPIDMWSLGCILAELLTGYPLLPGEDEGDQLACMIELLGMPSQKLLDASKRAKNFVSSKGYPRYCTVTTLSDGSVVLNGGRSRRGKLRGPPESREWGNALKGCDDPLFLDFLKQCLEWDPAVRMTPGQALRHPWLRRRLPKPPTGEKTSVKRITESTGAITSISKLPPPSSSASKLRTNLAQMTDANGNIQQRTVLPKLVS

RIOK2 = RIOK2 (Homo sapiens (Human), UniProt Q9BVS4); conditions: RIOK2, 10000 nM; read-out: Percent Control
BRK = BRK (Homo sapiens (Human), UniProt Q13882); conditions: 10000 nM, read-out: Percent Control
ADCK4 = ADCK4 (Homo sapiens (Human), UniProt Q96D53); conditions: ADCK4, 10000 nM; read-out: Percent Control
NEK3 = NEK3 (Homo sapiens (Human), UniProt P51956); conditions: NEK3, 10000 nM; read-out: Percent Control
RIPK2 = RIPK2 (Homo sapiens (Human), UniProt O43353); conditions: RIPK2, 10000 nM; read-out: Percent Control
EIF2AK1 = EIF2AK1 (Homo sapiens (Human), UniProt Q9BQI3); conditions: EIF2AK1, 10000 nM; read-out: Percent Control
ERK1 = ERK1 (Homo sapiens (Human), UniProt P27361); conditions: ERK1, 10000 nM; read-out: Percent Control
CDKL3 = CDKL3 (Homo sapiens (Human), UniProt Q8IVW4); conditions: CDKL3, 10000 nM; read-out: Percent Control
CDKL3, sequence (Q8IVW4 whole entry): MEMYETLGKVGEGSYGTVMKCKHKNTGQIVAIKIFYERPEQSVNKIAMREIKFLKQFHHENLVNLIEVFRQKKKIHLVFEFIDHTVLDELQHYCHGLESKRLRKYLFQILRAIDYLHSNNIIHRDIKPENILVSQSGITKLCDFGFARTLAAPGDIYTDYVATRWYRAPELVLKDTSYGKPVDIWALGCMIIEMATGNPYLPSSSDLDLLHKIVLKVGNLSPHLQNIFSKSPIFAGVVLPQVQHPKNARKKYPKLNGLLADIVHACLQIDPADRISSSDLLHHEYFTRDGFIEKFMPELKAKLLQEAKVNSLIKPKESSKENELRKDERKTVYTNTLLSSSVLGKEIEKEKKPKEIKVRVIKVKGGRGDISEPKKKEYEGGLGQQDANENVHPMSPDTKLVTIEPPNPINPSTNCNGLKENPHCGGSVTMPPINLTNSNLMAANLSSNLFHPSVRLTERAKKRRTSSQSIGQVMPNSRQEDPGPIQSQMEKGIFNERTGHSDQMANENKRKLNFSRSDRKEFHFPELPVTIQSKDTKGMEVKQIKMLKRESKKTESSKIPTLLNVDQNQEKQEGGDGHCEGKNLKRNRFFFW

WNK3 = WNK3 (Homo sapiens (Human), UniProt Q9BYP7); conditions: WNK3, 10000 nM; read-out: Percent Control
INSRR = INSRR (Homo sapiens (Human), UniProt P14616); conditions: 10000 nM, read-out: Percent Control
INSRR, sequence (P14616 27-1297): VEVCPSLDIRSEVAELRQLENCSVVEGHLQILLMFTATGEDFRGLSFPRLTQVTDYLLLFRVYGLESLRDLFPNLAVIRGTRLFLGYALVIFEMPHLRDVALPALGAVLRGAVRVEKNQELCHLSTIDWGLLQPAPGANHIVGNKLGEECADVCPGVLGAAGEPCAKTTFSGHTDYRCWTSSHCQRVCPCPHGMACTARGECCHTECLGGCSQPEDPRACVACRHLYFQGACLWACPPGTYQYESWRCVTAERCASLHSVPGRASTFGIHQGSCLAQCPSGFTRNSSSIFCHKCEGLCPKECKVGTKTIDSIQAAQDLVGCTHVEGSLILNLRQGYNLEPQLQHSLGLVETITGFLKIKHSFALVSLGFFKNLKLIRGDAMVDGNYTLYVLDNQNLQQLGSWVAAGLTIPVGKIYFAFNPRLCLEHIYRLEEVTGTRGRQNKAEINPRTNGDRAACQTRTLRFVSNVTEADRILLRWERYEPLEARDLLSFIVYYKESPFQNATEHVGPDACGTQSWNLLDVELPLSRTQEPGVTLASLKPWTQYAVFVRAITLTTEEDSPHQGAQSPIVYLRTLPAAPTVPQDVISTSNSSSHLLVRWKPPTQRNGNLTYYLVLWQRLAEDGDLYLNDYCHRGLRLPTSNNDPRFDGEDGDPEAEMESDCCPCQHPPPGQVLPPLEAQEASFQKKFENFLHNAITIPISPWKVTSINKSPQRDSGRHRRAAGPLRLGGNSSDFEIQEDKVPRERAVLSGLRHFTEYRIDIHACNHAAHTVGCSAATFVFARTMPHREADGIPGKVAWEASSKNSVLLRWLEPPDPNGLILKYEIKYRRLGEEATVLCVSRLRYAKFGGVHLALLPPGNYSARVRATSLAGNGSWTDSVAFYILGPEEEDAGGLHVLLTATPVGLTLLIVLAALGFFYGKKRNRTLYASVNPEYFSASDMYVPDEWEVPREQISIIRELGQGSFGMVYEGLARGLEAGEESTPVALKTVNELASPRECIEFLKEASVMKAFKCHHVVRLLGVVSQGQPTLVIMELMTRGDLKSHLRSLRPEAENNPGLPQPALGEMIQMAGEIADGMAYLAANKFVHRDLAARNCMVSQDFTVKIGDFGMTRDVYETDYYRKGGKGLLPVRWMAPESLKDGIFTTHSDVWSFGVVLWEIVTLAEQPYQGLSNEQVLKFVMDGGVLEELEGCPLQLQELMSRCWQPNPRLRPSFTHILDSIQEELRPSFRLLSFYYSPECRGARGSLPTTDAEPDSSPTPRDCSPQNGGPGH

PIK4CB = PIK4CB (Homo sapiens (Human), UniProt Q9UBF8); conditions: 10000 nM, read-out: Percent Control
PIK4CB, sequence (Q9UBF8 whole entry): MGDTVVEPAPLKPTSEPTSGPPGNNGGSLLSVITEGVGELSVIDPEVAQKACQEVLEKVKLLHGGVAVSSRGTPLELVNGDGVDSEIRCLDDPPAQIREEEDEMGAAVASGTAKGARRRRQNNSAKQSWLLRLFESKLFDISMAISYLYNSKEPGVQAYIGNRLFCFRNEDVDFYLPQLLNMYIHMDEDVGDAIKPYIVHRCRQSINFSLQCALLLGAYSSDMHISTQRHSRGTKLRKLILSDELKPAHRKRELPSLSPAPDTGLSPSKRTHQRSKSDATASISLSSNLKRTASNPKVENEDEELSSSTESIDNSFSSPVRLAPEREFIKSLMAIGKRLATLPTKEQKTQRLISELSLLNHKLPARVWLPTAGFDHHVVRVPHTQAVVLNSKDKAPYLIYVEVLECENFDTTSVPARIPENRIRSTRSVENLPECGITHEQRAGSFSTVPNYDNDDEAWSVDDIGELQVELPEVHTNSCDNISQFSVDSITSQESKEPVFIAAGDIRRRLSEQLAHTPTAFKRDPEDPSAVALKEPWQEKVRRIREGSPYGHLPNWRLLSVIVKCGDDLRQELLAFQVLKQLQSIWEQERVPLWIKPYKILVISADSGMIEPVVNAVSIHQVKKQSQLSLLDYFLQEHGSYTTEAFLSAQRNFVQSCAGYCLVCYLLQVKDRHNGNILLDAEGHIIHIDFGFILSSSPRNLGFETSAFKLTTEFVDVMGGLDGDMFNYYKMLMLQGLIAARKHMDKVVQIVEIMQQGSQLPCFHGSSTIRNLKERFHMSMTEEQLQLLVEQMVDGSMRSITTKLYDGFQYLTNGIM

NEK9 = NEK9 (Homo sapiens (Human), UniProt Q8TD19); conditions: NEK9, 10000 nM; read-out: Percent Control
CDC2L5 = CDC2L5 (Homo sapiens (Human), UniProt Q14004); conditions: CDC2L5, 10000 nM; read-out: Percent Control
Protocol: (§1) Selectivity profiling of compound 3 among a panel of kinases was performed with KINOMEscan® as set forth below. The KINOMEscan® screening platform employs an active site-directed competition binding assay to quantitatively measure interactions between a test compound, e.g., compound 3, and more than 450 kinases and disease-relevant mutant variants.
(§2) Screening of compound 3 was conducted at a concentration of 10 μM by Eurofins DiscoverX. Activity is measured as the ability of compound 3 to displace the kinase from a solid support relative to a negative control (i.e., DMSO). The output is % control.

PRP4 = PRP4 (Homo sapiens (Human), UniProt Q13523); conditions: PRP4, 10000 nM; read-out: Percent Control
Protocol: as §1, §2

MAPKAPX5 = MAPKAPX5 (Homo sapiens (Human), UniProt Q8IW41); conditions: read-out: Percent Control
HPK1 = HPK1 (Homo sapiens (Human), UniProt Q92918); conditions: HPK1, 10000 nM; read-out: Percent Control
HPK1, sequence (Q92918 whole entry): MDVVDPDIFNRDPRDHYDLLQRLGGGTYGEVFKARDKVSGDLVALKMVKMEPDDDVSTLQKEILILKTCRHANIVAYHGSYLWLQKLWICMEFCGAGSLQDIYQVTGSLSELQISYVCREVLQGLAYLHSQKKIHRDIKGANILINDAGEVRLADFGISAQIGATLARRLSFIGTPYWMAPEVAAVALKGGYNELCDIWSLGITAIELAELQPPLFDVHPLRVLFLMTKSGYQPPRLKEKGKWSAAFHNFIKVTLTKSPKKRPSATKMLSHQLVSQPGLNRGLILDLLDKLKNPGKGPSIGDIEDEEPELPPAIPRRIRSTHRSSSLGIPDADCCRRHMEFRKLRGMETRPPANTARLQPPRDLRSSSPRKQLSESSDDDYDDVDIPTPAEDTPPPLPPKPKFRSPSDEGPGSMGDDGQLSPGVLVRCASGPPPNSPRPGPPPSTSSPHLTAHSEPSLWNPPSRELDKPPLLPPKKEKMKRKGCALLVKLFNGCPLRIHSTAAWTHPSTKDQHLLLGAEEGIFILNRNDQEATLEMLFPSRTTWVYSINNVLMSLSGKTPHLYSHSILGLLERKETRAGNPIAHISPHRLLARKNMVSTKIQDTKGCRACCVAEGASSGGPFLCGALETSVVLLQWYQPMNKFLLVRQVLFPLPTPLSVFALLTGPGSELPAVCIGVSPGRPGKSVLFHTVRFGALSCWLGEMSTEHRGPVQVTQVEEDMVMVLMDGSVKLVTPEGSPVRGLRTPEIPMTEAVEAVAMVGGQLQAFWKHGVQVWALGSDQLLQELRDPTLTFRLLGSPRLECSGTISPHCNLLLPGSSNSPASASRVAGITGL

AKT2 = AKT2 (Homo sapiens (Human), UniProt P31751); conditions: AKT2, 10000 nM; read-out: Percent Control
MARK1 = MARK1 (Homo sapiens (Human), UniProt Q9P0L2); conditions: MARK1, 10000 nM; read-out: Percent Control
TESK1 = TESK1 (Homo sapiens (Human), UniProt Q15569); conditions: TESK1, 10000 nM; read-out: Percent Control
TESK1, sequence (Q15569 whole entry): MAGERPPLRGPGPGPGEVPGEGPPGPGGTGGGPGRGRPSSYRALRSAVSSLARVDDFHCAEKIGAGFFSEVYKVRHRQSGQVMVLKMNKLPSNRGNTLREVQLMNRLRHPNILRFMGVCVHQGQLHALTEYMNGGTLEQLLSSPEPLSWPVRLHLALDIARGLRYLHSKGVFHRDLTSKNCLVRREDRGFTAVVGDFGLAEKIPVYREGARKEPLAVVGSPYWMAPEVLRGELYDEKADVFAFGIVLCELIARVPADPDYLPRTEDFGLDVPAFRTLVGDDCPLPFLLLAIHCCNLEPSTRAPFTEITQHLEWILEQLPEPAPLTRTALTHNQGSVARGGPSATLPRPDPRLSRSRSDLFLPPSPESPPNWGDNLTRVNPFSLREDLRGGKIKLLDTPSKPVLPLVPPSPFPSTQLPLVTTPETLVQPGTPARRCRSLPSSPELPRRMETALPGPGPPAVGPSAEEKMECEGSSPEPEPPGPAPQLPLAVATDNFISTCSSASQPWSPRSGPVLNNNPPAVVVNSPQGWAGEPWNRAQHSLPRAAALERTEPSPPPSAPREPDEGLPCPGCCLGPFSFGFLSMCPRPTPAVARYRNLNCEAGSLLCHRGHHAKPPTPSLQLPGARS

TNK1 = TNK1 (Homo sapiens (Human), UniProt Q13470); conditions: TNK1, 10000 nM; read-out: Percent Control
ERN1 = ERN1 (Homo sapiens (Human), UniProt O75460); conditions: ERN1, 10000 nM; read-out: Percent Control
ROCK1 = ROCK1 (Homo sapiens (Human), UniProt Q13464); conditions: ROCK1, 10000 nM; read-out: Percent Control
TLK2 = TLK2 (Homo sapiens (Human), UniProt Q86UE8); conditions: TLK2, 10000 nM; read-out: Percent Control
EGFR(L858R, T790M) = EGFR(L858R, T790M) (Homo sapiens (Human), UniProt P00533, L858R/T790M); conditions: 10000 nM, read-out: Percent Control
[1] = molecular target: RSK4(Kin.Dom.1-N-terminal) (Homo sapiens (Human), UniProt Q9UK32); conditions: 10000 nM, read-out: Percent Control
RSK4(Kin.Dom.1-N-terminal), sequence (Q9UK32 73-330): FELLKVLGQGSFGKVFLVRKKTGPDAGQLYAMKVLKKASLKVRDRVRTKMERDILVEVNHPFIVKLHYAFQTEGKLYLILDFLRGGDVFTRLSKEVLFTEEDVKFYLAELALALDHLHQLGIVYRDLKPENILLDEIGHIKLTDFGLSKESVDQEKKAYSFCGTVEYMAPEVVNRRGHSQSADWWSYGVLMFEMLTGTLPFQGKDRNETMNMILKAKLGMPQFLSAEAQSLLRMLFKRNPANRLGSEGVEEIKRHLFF

DAPK1 = DAPK1 (Homo sapiens (Human), UniProt P53355); conditions: DAPK1, 10000 nM; read-out: Percent Control
PIK3CA(M1043I) = PIK3CA(M1043I) (Homo sapiens (Human), UniProt P42336, M1043I); conditions: 10000 nM, read-out: Percent Control
FLT3 = FLT3 (Homo sapiens (Human), UniProt P36888); conditions: FLT3, 10000 nM; read-out: Percent Control

Row | SMILES | remaining binding at 10 µM (TRKC) | remaining binding at 10 µM (DYRK2) | remaining binding at 10 µM (RIOK2) | remaining binding at 10 µM (BRK) | remaining binding at 10 µM (ADCK4) | remaining binding at 10 µM (NEK3) | remaining binding at 10 µM (RIPK2) | remaining binding at 10 µM (EIF2AK1) | remaining binding at 10 µM (ERK1) | remaining binding at 10 µM (CDKL3) | remaining binding at 10 µM (WNK3) | remaining binding at 10 µM (INSRR) | remaining binding at 10 µM (PIK4CB) | remaining binding at 10 µM (NEK9) | remaining binding at 10 µM (CDC2L5) | remaining binding at 10 µM (PRP4) | remaining binding at 10 µM (HPK1) | remaining binding at 10 µM (AKT2) | remaining binding at 10 µM (MARK1) | remaining binding at 10 µM (TESK1) | other results
1 | COc1cc(N2CCC(N3CCN(C)CC3)CC2)ccc1Nc1ncc2c(n1)N(C)c1sc(C)nc1C(=O)N2 [Compound 3, 6-((2-methoxy-4-(4-(4-methylpiperazin-1-yl)piperidin-1-yl)phenyl)amino)-2,4-dimethyl-4,9-dihydro-10H-pyrimido[5,4-b]thiazolo[5,4-e][1,4]diazepin-10-one] | 100% | 100% | 82% | 66% | 83% | 88% | 88% | 73% | 88% | 75% | 100% | 84% | 85% | 84% | 100% | 100% | 68% | 75% | 87% | 81% | remaining binding at 10 µM (MAPKAPX5; MAPKAPX5, 10000 nM): 100%; remaining binding at 10 µM (TNK1): 53%; remaining binding at 10 µM (ERN1): 93%; remaining binding at 10 µM (ROCK1): 100%; remaining binding at 10 µM (TLK2): 100%; remaining binding at 10 µM (EGFR(L858R, T790M)): 100%; remaining binding at 10 µM [1]: 100%; remaining binding at 10 µM (DAPK1): 72%; remaining binding at 10 µM (PIK3CA(M1043I); PIK3CA(M1043I)): 87%; remaining binding at 10 µM (FLT3): 100%
2 | COc1cc(N2CCC(N3CCN(C)CC3)CC2)ccc1Nc1ncc2c(n1)N(C)c1sc(C)nc1C(=O)N2C [Compound 5, 6-((2-methoxy-4-(4-(4-methylpiperazin-1-yl)piperidin-1-yl)phenyl)amino)-2,4,9-trimethyl-4,9-dihydro-10H-pyrimido[5,4-b]thiazolo[5,4-e][1,4]diazepin-10-one] | 100% | 100% | 100% | 100% | 73% | 100% | 95% | 100% | 92% | 100% | 97% | 22% | 100% | 100% | 100% | 100% | 100% | 100% | 89% | 100% | remaining binding at 10 µM (MAPKAPX5; MAPKAPK5, 10000 nM): 93%; remaining binding at 10 µM (TNK1): 10%; remaining binding at 10 µM (ERN1): 88%; remaining binding at 10 µM (ROCK1): 100%; remaining binding at 10 µM (TLK2): 100%; remaining binding at 10 µM (EGFR(L858R, T790M)): 80%; remaining binding at 10 µM [1]: 91%; remaining binding at 10 µM (DAPK1): 84%; remaining binding at 10 µM (PIK3CA(M1043I); PIK3CA(M1043l)): 100%; remaining binding at 10 µM (FLT3): 99%
